The record followed here is article PMC12990037, “Discovery of Two Structurally Distinct Classes of Inhibitors Targeting the Nuclease MUS81 and Enhancing Efficacy of Chemotherapy in Cancer Cells” (Journal of Medicinal Chemistry, 2026).

The test system of data set [1] is U2OS cells. Kind of data set: EdU/PI cell cycle assay. The class given is cell-based. The following applies: CPT 100 μM for the last 16 h. As for the experimental part:
(§1) Given these promising findings, we further investigated the specificity of MU262 and MU876 and potential short-term cytotoxicity. To mirror the treatment duration used in BIR and HR assays, U2OS cells were exposed to the inhibitors or siRNA for 3 days.
U2OS WT cells (300,000) were seeded in a 6-well plate; a subset of them was treated with either control siRNA or siRNA targeting MUS81. After adhesion, cells were treated with the respective inhibitors for 72 h during which CPT ([…], Sigma-Aldrich) was added for the last 16 h and 10 μM EdU (Sigma-Aldrich) was added for the last 1 h. Cells were then harvested and stained by using the Click-iT EdU Alexa Fluor 647 Flow Cytometry Assay Kit (Thermo Fisher Scientific). Finally, cells were resuspended in 1xPBS containing 5 μg/mL of propidium iodide (PI) and analyzed using a BD FACSVerse flow cytometer (Becton Dickinson) and FlowJo software (BD Life Sciences). At least 20,000 cells were used for each measurement, and experiments were performed in duplicates.

Data set [2] has as its system U2OS cells. As to the kind of experiment: Annexin V apoptotic assay. The class given is cell-based. As to conditions: CPT 100 μM for the last 2 h. The protocol: as §1
U2OS WT cells (300,000) were seeded in a 6-well plate, a subset of them was treated with either control siRNA or siRNA targeting MUS81. After adhesion, cells were treated with the respective inhibitors for 72 h during which CPT (100 μM, Sigma-Aldrich) was added for the last 2 h. Cells were harvested, washed in ice-cold PBS, and collected by centrifugation at 500g for 5 min. Cells were simultaneously stained with FITC-labeled annexin V antibody (556419, Becton Dickinson) and PI (5 μL) at room temperature for 15 min, protected from light. Stained cells were analyzed using a BD FACSVerse flow cytometer (Becton Dickinson) and FlowJo software (BD Life Sciences). At least 20,000 cells were used for each measurement, and experiments were performed in duplicates.

The target in the next data set is T1, MUS81–EME1 (Homo sapiens, UniProt Q96NY9).
T1 construct: The MUS81–EME1 full-length expression plasmid was obtained from Stephen C; West; made in house; host or cells: Escherichia coli
T1 sequence (Q96NY9 1-551): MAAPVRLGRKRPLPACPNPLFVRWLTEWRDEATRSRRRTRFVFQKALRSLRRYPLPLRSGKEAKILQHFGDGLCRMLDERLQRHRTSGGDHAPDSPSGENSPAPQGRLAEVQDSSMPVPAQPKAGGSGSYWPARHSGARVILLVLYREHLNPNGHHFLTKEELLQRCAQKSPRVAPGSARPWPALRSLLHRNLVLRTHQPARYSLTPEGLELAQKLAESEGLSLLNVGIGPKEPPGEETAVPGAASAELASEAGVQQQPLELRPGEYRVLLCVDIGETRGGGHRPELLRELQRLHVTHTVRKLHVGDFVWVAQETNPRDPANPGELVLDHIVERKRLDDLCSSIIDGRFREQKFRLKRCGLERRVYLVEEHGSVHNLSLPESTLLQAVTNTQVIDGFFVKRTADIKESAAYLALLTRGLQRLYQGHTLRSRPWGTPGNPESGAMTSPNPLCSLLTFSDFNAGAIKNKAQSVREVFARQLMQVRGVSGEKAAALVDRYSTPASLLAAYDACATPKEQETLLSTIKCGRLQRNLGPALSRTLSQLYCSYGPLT
T1 sequence (Q96AY2 1-570 partner): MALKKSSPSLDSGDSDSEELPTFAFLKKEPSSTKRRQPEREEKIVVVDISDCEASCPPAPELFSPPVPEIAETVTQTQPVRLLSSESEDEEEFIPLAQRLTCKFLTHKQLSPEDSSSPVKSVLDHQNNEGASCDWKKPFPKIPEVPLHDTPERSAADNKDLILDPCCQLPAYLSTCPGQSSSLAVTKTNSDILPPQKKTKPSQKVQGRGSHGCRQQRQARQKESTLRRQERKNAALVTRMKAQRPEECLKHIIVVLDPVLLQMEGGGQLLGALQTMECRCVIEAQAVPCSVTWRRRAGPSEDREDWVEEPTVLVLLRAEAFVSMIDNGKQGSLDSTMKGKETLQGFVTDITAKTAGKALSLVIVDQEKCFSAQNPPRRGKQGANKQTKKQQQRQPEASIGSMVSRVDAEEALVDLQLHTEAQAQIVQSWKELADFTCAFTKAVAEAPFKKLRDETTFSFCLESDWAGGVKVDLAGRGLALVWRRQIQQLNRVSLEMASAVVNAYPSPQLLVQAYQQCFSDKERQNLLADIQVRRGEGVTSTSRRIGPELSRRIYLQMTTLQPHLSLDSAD
Kind of data set: Gel-based in vitro nuclease assay: cleavage of 3′flap DNA by purified MUS81–EME1. The following applies: for activity in the in vitro assay: negative control compounds. It counts as biochemical. As for the experimental part: To identify the small-molecule inhibitors of MUS81, we used two complementary screening approaches. The first involved a structure-based virtual screening, where over 140,000 small molecules were docked into the active site of MUS81 using AutoDock Vina software. […] The cleavage by purified MUS81-EME1 was monitored by gel electrophoresis, and the compound activity was quantified by measuring the reduction in cleavage product intensity.
Nuclease assays were performed in reaction buffer containing 50 mM Tris pH 7.5, 10 mM MgCl2, 1 mM DTT, 85 mM KCl, and 20% glycerol. Purified MUS81–EME1 (1 nM) was preincubated in 9 μL reaction with indicated concentrations of inhibitors for 15 min at room temperature, followed by the addition of 3 nM of a 3′flap DNA substrate (listed in Supplementary Table 9) and a further incubation for 15 min at 37 °C. The final concentration of DMSO in the reactions was 2%. The reactions were stopped by the addition of 0.1% SDS and 500 μg/mL of proteinase K, followed by incubation for 5 min at 37 °C. […] The fluorescent DNA was visualized using a FLA-9000 (Fujifilm). Bands corresponding to cleaved substrates were selected for quantification using the MultiGauge 3.2 software. Final data represent integrated density of these bands with background subtraction. Fitting of the data with sigmoid curves was performed in OriginPro (OriginLab).

A short description of data set [3]: Solubility in aqueous DMSO. The class given is physicochemical.
In data set [4] the target is T2, MUS81–EME1 binding to 3′ flap DNA substrate (Homo sapiens, UniProt Q96NY9).
T2 construct: The MUS81–EME1 full-length expression plasmid was obtained from Stephen C; West; made in house; host or cells: Escherichia coli
T2 sequence (Q96NY9 1-551): T1 sequence (Q96NY9 1-551)
T2 sequence (Q96AY2 1-570 partner): T1 sequence (Q96AY2 1-570 partner)
As to the kind of experiment: Electrophoretic mobility shift assay (EMSA). As to conditions: MUS81–EME1 160 nM, no MgCl2. Background: In EMSA bound probe runs differently from free probe, usually more slowly.
Description: (A,B) Purified MUS81–EME1 (160 nM) was incubated with increasing concentrations of MU262, MU876, or their respective control analogues, followed by the addition of 3 nM fluorescently labeled 3′ flap DNA substrate. MgCl2 was omitted from the reaction buffer to prevent substrate cleavage. The reaction products were resolved on a native PAGE gel. The lower band represents a free DNA substrate, while the upper smear corresponds to the MUS81–DNA complex. n = 3.
Purified MUS81–EME1 (160 nM) was incubated in a modified assay buffer without MgCl2 (50 mM Tris–HCl pH 7.4, 150 mM NaCl, and 0.05% Tween-20) with 15 nM of a 3′flap DNA substrate (listed in Supplementary Table 5) in the absence or presence of selected inhibitors at RT for 10 min, followed by an incubation at 25 °C for 10 min. The reaction was stopped on ice and products were resolved using native PAGE (7.5% acrylamide gel in 0.5% TBE) at 4 °C for 50 min (6.5 V/cm). Gel images were captured using a FLA-9000 (Fujifilm) and Typhoon (Amersham) scanners and quantified with Multi Gauge V3.2 software (Fujifilm).

On to `CC[C@@]1(O)C(=O)OCc2c1cc1n(c2=O)Cc2cc3ccccc3nc2-1` [CPT, camptothecin, reference compound], for which the cell cycle profile entry in the data set with U2OS cells [1] was “reduced the proportion of S phase cells”. Moreover, the “apoptosis (Annexin V staining)” value in the data set on U2OS cells [2] is on record as “robust apoptosis”.
On to `Nc1c(-c2nc3ccccc3[nH]2)nnc2ccnn12` [Compound 3], for which, at MUS81–EME1 (Table 1, in vitro), the IC50 (as a rule, the concentration that inhibits the measured activity by half) was > 50 µM.
As for `Nc1c(-c2nc3ccccc3[nH]2)nnc2c(-c3ccc(F)cc3)cnn12` [Compound 4], on MUS81–EME1 (Table 1, in vitro), the IC50 is > 50 µM.
Same read-out and setting: as for `CCc1cc2nnc(-c3nc4ccccc4[nH]3)c(N)n2n1` [Compound 5], the figure is > 5 µM; as for `CCc1nn2c(N)c(-c3nc4ccccc4[nH]3)nnc2c1-c1ccc(OC)cc1` [Compound 7], > 25 µM.
As to `Nc1c(-c2nc3ccccc3[nH]2)nnc2cc(-c3cccc4ccccc34)nn12` [Compound 12], the half-inhibitory concentration (IC50) against MUS81–EME1 (Table 1, in vitro) came to 1.8 µM. Moreover, the “solubility in aqueous DMSO” value in data set [3] is given as “only sparingly soluble in aqueous DMSO”.
Consider `Nc1c(-c2nc3ccccc3[nH]2)nnc2cc(-c3ccccc3Oc3ccccc3)nn12` [Compound 13], for which the “solubility in aqueous DMSO” value in data set [3] was “only sparingly soluble in aqueous DMSO”.
Consider `Nc1c(-c2nc3ccccc3[nH]2)nnc2cc(-c3ccc4ccccc4c3)nn12` [Compound 14], for which the “solubility in aqueous DMSO” value in data set [3] is “only sparingly soluble in aqueous DMSO”.
Same read-out and setting: in the case of `Nc1c(-c2nc3ccccc3[nH]2)nnc2cc(-c3ccccc3)nn12` [Compound 15] it was “only sparingly soluble in aqueous DMSO”.
In the case of `CCc1nn2cc(-c3nc4ccccc4[nH]3)nnc2c1-c1ccc(F)cc1` [Compound 16], the IC50 on MUS81–EME1 (Table 1, in vitro) was > 10 µM.
For the compound `CCc1nn2c(C)c(-c3nc4ccccc4[nH]3)nnc2c1-c1ccc(F)cc1` [Compound 17], in data set [4], the “effect on MUS81–EME1 binding to 3′ flap DNA (EMSA)” value was “neither MU262 nor its inactive analogue MU1066 disrupted the MUS81–DNA interaction”. For the same compound, the IC50 on MUS81–EME1 (Table 1, in vitro) is > 10 µM. Further, on MUS81–EME1, the “activity in the in vitro assay” value is on record as “no activity”.
For `CCc1nn2c(O)c(-c3ncccn3)nnc2c1-c1ccc(F)cc1` [Compound 20], at MUS81–EME1 (Table 1, in vitro), the IC50 was > 40 µM.
Same read-out and setting: as for `CCc1nn2c(N)c(C(N)=O)nnc2c1-c1ccc(F)cc1` [Compound 21], the figure is > 50 µM; as for `CCc1nn2c(N)c(-c3nc4ccccc4n3Cc3ccccc3)nnc2c1-c1ccc(F)cc1` [Compound 22], 8 µM; as for `CCc1nn2c(O)c(-c3nc4ccccc4n3CCN(C)C)nnc2c1-c1ccc(F)cc1` [Compound 23], > 10 µM.
The same measure, in the same setting: as for `CCc1nn2c(O)c(-c3nc4ccccc4n3CCN3CCOCC3)nnc2c1-c1ccc(F)cc1` [Compound 24], the figure is > 10 µM.
Take `CCc1nn2c(O)c(-c3nccn3C)nnc2c1-c1ccc(F)cc1` [Compound 25]: the IC50 at MUS81–EME1 (Table 1, in vitro) is > 40 µM. The “activity in the in vitro assay” value on MUS81–EME1 is reported as “no activity”.
Take `CCc1nn2c(N)c(-c3ncc[nH]3)nnc2c1-c1ccc(F)cc1` [Compound 27]: in data set [3], the “solubility in aqueous DMSO” value was “less soluble in aqueous DMSO”.
Consider `Cc1cc(=O)[nH]c(-n2nc(C3CCCCC3)cc2NC(=O)c2cc(-c3ccccc3)on2)n1` [Compound 34], for which the IC50 at MUS81–EME1 (Table 2, in vitro) is > 10 µM.
In the case of `Cc1cc(=O)[nH]c(-n2nc(-c3ccccc3)c(C)c2NC(=O)c2cc(-c3ccccc3)on2)n1` [Compound 35], the IC50 on MUS81–EME1 (Table 2, in vitro) is > 10 µM.
Still for that read-out and setting: as for `Cc1cc(=O)[nH]c(-n2nc(-c3ccccc3)cc2NC(=O)c2cc(C3CCCCC3)on2)n1` [Compound 37], the figure is > 10 µM; as for `Cc1cc(=O)[nH]c(-n2nc(-c3ccccc3)cc2NC(=O)c2cc(-c3ccccc3Br)on2)n1` [Compound 38], > 10 µM.
Turning to `COc1ccc(-c2cc(C(=O)Nc3cc(-c4ccccc4)nn3-c3nc(C)cc(=O)[nH]3)no2)cc1` [Compound 40], the concentration for half-maximal inhibition (IC50) against MUS81–EME1 (Table 2, in vitro) was > 10 µM.
Still for that read-out and setting: in the case of `Cc1cc(=O)[nH]c(-n2nc(-c3ccccc3)cc2NC(=O)c2csc(-c3ccccc3)n2)n1` [Compound 42] it was > 10 µM.
As for `Cc1cc(=O)[nH]c(-n2nc(-c3ccccc3)cc2N(C)C(=O)c2cc(-c3ccccc3)on2)n1` [Compound 45], the “effect on MUS81–EME1 binding to 3′ flap DNA (EMSA)” value in data set [4] is “no significant effect”. Further, the IC50 against MUS81–EME1 (Table 2, in vitro) was > 10 µM. In addition, the “activity in the in vitro assay” value at MUS81–EME1 is listed as “no activity”.
In the case of `Cn1nc(-c2ccccc2)cc1NC(=O)c1cc(-c2ccccc2)on1` [Compound 46], the IC50 against MUS81–EME1 (Table 2, in vitro) was > 10 µM.
On the same count and under the same terms, in the case of `O=C(Nc1cc(-c2ccccc2)nn1-c1ccccc1)c1cc(-c2ccccc2)on1` [Compound 47] it was > 10 µM.
For the compound `O=C(Nc1cc(-c2ccccc2)nn1-c1ncccn1)c1cc(-c2ccccc2)on1` [Compound 48], the IC50 at MUS81–EME1 (Table 2, in vitro) was > 10 µM.
With `COc1cc(C)nc(-n2nc(-c3ccccc3)cc2NC(=O)c2cc(-c3ccccc3)on2)n1` [Compound 49], the IC50 against MUS81–EME1 (Table 2, in vitro) is > 10 µM.
Take `COCc1cc(=O)[nH]c(-n2nc(-c3ccccc3)cc2NC(=O)c2cc(-c3ccccc3)on2)n1` [Compound 51]: the IC50 against MUS81–EME1 (Table 2, in vitro) is > 10 µM.
